{"source": "ChEMBL document CHEMBL1201862", "about": "“PubChem BioAssay data set” (2004)", "assay_in_all_cases": "inhibition of tumour cell growth, NCI panel, 48 h", "key": {"A549": {"tested_on": "A549"}, "CCRF-CEM": {"tested_on": "CCRF-CEM"}, "DU-145": {"tested_on": "DU-145"}, "HCC 2998": {"tested_on": "HCC 2998"}, "HOP-92": {"tested_on": "HOP-92"}, "Hs-578T": {"tested_on": "Hs-578T"}, "M14": {"tested_on": "M14"}, "MDA-N": {"tested_on": "MDA-N"}, "MOLT-4": {"tested_on": "MOLT-4"}, "Malme-3M": {"tested_on": "Malme-3M"}, "NCI-H226": {"tested_on": "NCI-H226"}, "NCI-H23": {"tested_on": "NCI-H23"}, "NCI/ADR-RES": {"tested_on": "NCI/ADR-RES"}, "OVCAR-8": {"tested_on": "OVCAR-8"}, "PC-3": {"tested_on": "PC-3"}, "SF-268": {"tested_on": "SF-268"}, "SK-MEL-28": {"tested_on": "SK-MEL-28"}, "SK-MEL-5": {"tested_on": "SK-MEL-5"}, "SR": {"tested_on": "SR"}, "UO-31": {"tested_on": "UO-31"}}, "note": "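In this assay, cells in 96-well plates receive the compound at five concentrations for 48 hours. Endpoints are linearly interpolated between the surrounding concentrations. GI50 is the concentration that inhibits growth by half.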 Active and inactive are the calls of the source. Rule as the data show it: active = GI50 up to about 1.1 µM and inactive = higher.", "data": [{"smiles": "O=C(c1ccc(Cl)cc1)N(Cc1cccnc1)C(=S)N(Cc1cccnc1)C(=O)c1ccc(Cl)cc1", "values": [{"measurement": "GI50", "setting": "A549", "value": "99.5 µM (inactive)"}, {"measurement": "GI50", "setting": "CCRF-CEM", "value": "50 µM (inactive)"}, {"measurement": "GI50", "setting": "DU-145", "value": "31.1 µM (inactive)"}, {"measurement": "GI50", "setting": "HCC 2998", "value": "25.9 µM (inactive)"}, {"measurement": "GI50", "setting": "HOP-92", "value": "34 µM (inactive)"}, {"measurement": "GI50", "setting": "Hs-578T", "value": "48.4 µM (inactive)"}, {"measurement": "GI50", "setting": "M14", "value": "22.7 µM (inactive)"}, {"measurement": "GI50", "setting": "MDA-N", "value": "22.2 µM (inactive)"}, {"measurement": "GI50", "setting": "MOLT-4", "value": "16.1 µM (inactive)"}, {"measurement": "GI50", "setting": "Malme-3M", "value": "51.2 µM (inactive)"}, {"measurement": "GI50", "setting": "NCI-H226", "value": "43.5 µM (inactive)"}, {"measurement": "GI50", "setting": "NCI-H23", "value": "36.1 µM (inactive)"}, {"measurement": "GI50", "setting": "NCI/ADR-RES", "value": "31.2 µM (inactive)"}, {"measurement": "GI50", "setting": "OVCAR-8", "value": "29.6 µM (inactive)"}, {"measurement": "GI50", "setting": "PC-3", "value": "30.3 µM (inactive)"}, {"measurement": "GI50", "setting": "SF-268", "value": "28.3 µM (inactive)"}, {"measurement": "GI50", "setting": "SK-MEL-28", "value": "37.8 µM (inactive)"}, {"measurement": "GI50", "setting": "SK-MEL-5", "value": "27.5 µM (inactive)"}, {"measurement": "GI50", "setting": "SR", "value": "50.4 µM (inactive)"}, {"measurement": "GI50", "setting": "UO-31", "value": "34.2 µM (inactive)"}]}, {"smiles": "CCOc1nc2c(N3CCCC3)nc(N3CCNCC3)nc2nc1NCc1ccccc1", "values": [{"measurement": "GI50", "setting": "A549", "value": "1.74 µM (inactive)"}, {"measurement": "GI50", "setting": "CCRF-CEM", "value": "1.26 µM (inactive)"}, {"measurement": "GI50", "setting": "DU-145", "value": "0.944 µM (active)"}, {"measurement": "GI50", "setting": "HCC 2998", "value": "1.34 µM (inactive)"}, {"measurement": "GI50", "setting": "HOP-92", "value": "1.13 µM (inactive)"}, {"measurement": "GI50", "setting": "Hs-578T", "value": "1.72 µM (inactive)"}, {"measurement": "GI50", "setting": "M14", "value": "1.61 µM (inactive)"}, {"measurement": "GI50", "setting": "MDA-N", "value": "1.11 µM (active)"}, {"measurement": "GI50", "setting": "MOLT-4", "value": "1.09 µM (active)"}, {"measurement": "GI50", "setting": "Malme-3M", "value": "1.89 µM (inactive)"}, {"measurement": "GI50", "setting": "NCI-H226", "value": "1.65 µM (inactive)"}, {"measurement": "GI50", "setting": "NCI-H23", "value": "1.51 µM (inactive)"}, {"measurement": "GI50", "setting": "NCI/ADR-RES", "value": "2.77 µM (inactive)"}, {"measurement": "GI50", "setting": "OVCAR-8", "value": "1.73 µM (inactive)"}, {"measurement": "GI50", "setting": "PC-3", "value": "1.46 µM (inactive)"}, {"measurement": "GI50", "setting": "SF-268", "value": "1.56 µM (inactive)"}, {"measurement": "GI50", "setting": "SK-MEL-28", "value": "1.79 µM (inactive)"}, {"measurement": "GI50", "setting": "SK-MEL-5", "value": "1.41 µM (inactive)"}, {"measurement": "GI50", "setting": "SR", "value": "1.31 µM (inactive)"}, {"measurement": "GI50", "setting": "UO-31", "value": "1.32 µM (inactive)"}]}, {"smiles": "FC(F)(F)c1ccc2c(-c3cc[nH]c3)ccnc2c1", "values": [{"measurement": "GI50", "setting": "A549", "value": "26 µM (inactive)"}, {"measurement": "GI50", "setting": "CCRF-CEM", "value": "32.6 µM (inactive)"}, {"measurement": "GI50", "setting": "DU-145", "value": "32.5 µM (inactive)"}, {"measurement": "GI50", "setting": "HCC 2998", "value": "> 100 µM (inactive)"}, {"measurement": "GI50", "setting": "HOP-92", "value": "52.4 µM (inactive)"}, {"measurement": "GI50", "setting": "Hs-578T", "value": "23.9 µM (inactive)"}, {"measurement": "GI50", "setting": "M14", "value": "34.5 µM (inactive)"}, {"measurement": "GI50", "setting": "MDA-N", "value": "32.3 µM (inactive)"}, {"measurement": "GI50", "setting": "MOLT-4", "value": "19.4 µM (inactive)"}, {"measurement": "GI50", "setting": "Malme-3M", "value": "24.5 µM (inactive)"}, {"measurement": "GI50", "setting": "NCI-H226", "value": "36.9 µM (inactive)"}, {"measurement": "GI50", "setting": "NCI-H23", "value": "28 µM (inactive)"}, {"measurement": "GI50", "setting": "NCI/ADR-RES", "value": "37.1 µM (inactive)"}, {"measurement": "GI50", "setting": "OVCAR-8", "value": "34.1 µM (inactive)"}, {"measurement": "GI50", "setting": "PC-3", "value": "36.6 µM (inactive)"}, {"measurement": "GI50", "setting": "SF-268", "value": "> 10 µM (inactive)"}, {"measurement": "GI50", "setting": "SK-MEL-28", "value": "35.6 µM (inactive)"}, {"measurement": "GI50", "setting": "SK-MEL-5", "value": "20.7 µM (inactive)"}, {"measurement": "GI50", "setting": "SR", "value": "27 µM (inactive)"}, {"measurement": "GI50", "setting": "UO-31", "value": "20.9 µM (inactive)"}]}, {"smiles": "O=C1OC(c2ccccc2)=N/C1=C\\c1ccc(N(CCCl)CCCl)cc1", "values": [{"measurement": "GI50", "setting": "A549", "value": "> 100 µM (inactive)"}, {"measurement": "GI50", "setting": "CCRF-CEM", "value": "26 µM (inactive)"}, {"measurement": "GI50", "setting": "DU-145", "value": "> 100 µM (inactive)"}, {"measurement": "GI50", "setting": "HCC 2998", "value": "> 100 µM (inactive)"}, {"measurement": "GI50", "setting": "HOP-92", "value": "> 52.5 µM (inactive)"}, {"measurement": "GI50", "setting": "Hs-578T", "value": "> 100 µM (inactive)"}, {"measurement": "GI50", "setting": "M14", "value": "> 100 µM (inactive)"}, {"measurement": "GI50", "setting": "MDA-N", "value": "> 100 µM (inactive)"}, {"measurement": "GI50", "setting": "MOLT-4", "value": "44.9 µM (inactive)"}, {"measurement": "GI50", "setting": "Malme-3M", "value": "> 100 µM (inactive)"}, {"measurement": "GI50", "setting": "NCI-H226", "value": "> 100 µM (inactive)"}, {"measurement": "GI50", "setting": "NCI-H23", "value": "> 57.8 µM (inactive)"}, {"measurement": "GI50", "setting": "NCI/ADR-RES", "value": "> 85.1 µM (inactive)"}, {"measurement": "GI50", "setting": "OVCAR-8", "value": "> 100 µM (inactive)"}, {"measurement": "GI50", "setting": "PC-3", "value": "> 86.5 µM (inactive)"}, {"measurement": "GI50", "setting": "SF-268", "value": "> 88.7 µM (inactive)"}, {"measurement": "GI50", "setting": "SK-MEL-28", "value": "> 100 µM (inactive)"}, {"measurement": "GI50", "setting": "SK-MEL-5", "value": "> 100 µM (inactive)"}, {"measurement": "GI50", "setting": "SR", "value": "11.6 µM (inactive)"}, {"measurement": "GI50", "setting": "UO-31", "value": "> 78.3 µM (inactive)"}]}, {"smiles": "O=C1C2=C(CC3=C(C2)CS(=O)(=O)C3)C(=O)C2=C1CC1=C(C2)CS(=O)(=O)C1", "values": [{"measurement": "GI50", "setting": "A549", "value": "> 90.2 µM (inactive)"}, {"measurement": "GI50", "setting": "CCRF-CEM", "value": "12.8 µM (inactive)"}, {"measurement": "GI50", "setting": "DU-145", "value": "48.2 µM (inactive)"}, {"measurement": "GI50", "setting": "HCC 2998", "value": "20.6 µM (inactive)"}, {"measurement": "GI50", "setting": "HOP-92", "value": "> 46.7 µM (inactive)"}, {"measurement": "GI50", "setting": "Hs-578T", "value": "> 32.4 µM (inactive)"}, {"measurement": "GI50", "setting": "M14", "value": "> 37.7 µM (inactive)"}, {"measurement": "GI50", "setting": "MDA-N", "value": "10.3 µM (inactive)"}, {"measurement": "GI50", "setting": "MOLT-4", "value": "23.9 µM (inactive)"}, {"measurement": "GI50", "setting": "Malme-3M", "value": "5.42 µM (inactive)"}, {"measurement": "GI50", "setting": "NCI-H226", "value": "24.4 µM (inactive)"}, {"measurement": "GI50", "setting": "NCI-H23", "value": "23.9 µM (inactive)"}, {"measurement": "GI50", "setting": "NCI/ADR-RES", "value": "16.3 µM (inactive)"}, {"measurement": "GI50", "setting": "OVCAR-8", "value": "24.2 µM (inactive)"}, {"measurement": "GI50", "setting": "PC-3", "value": "10.8 µM (inactive)"}, {"measurement": "GI50", "setting": "SF-268", "value": "> 26.4 µM (inactive)"}, {"measurement": "GI50", "setting": "SK-MEL-28", "value": "> 43.1 µM (inactive)"}, {"measurement": "GI50", "setting": "SK-MEL-5", "value": "16.3 µM (inactive)"}, {"measurement": "GI50", "setting": "SR", "value": "4.4 µM (inactive)"}, {"measurement": "GI50", "setting": "UO-31", "value": "38.1 µM (inactive)"}]}]}
